In patent publication US20230210994A1, “CELL-PENETRATING CONJUGATE SYSTEMS” (Danmarks Tekniske Universitet, priority 2019, published 2023):

Assays:
CT-26 cells [1] = assay: Ethidium-homodimer internalization in CT-26 cells, fluorescent confocal microscopy; format: cell-based, mouse; conditions: EtDi alone, without conjugate
Procedure: CT-26 cells in culture were co-incubated with the conjugate system, 4-hydroxybutyl L-tryptophanate, (1 mg/ml) and Etidium-homodimer (2 μl/ml) for 1 hour and observed under fluorescent confocal microscope. Working ratio was set as 1:3 and two reaction sets comprising of higher (80 μl) loading and standard loading (40 μl ) were performed. Emission bandwidth was set as 490-550nm and 590-680 nm.

CT26 cells = assay: Uptake of Oxaliplatin by CT26 cells measured by ICP-MS; format: cell-based, mouse; conditions: 30 μM OxPt alone, peaking at 4 h
Procedure: CT26 cells were seeded in 24-well plate (100.000 cells/mL/well) exposed to Oxaliplatin (Ox-Pt, 10 μM and 30 μM) with/and without conjugate the molar ratio of 1:1, 1:3 and 3:1 respectively. After 1, 4, 24 hours of incubation, media was discarded and the cells were washed with PBS twice, once with heparin (to remove anything associated externally with the cell membrane) and once more with PBS. Then the cells were detached from the wells using trypsin and cells were counted. Finally, each sample was diluted in HCl acid and further diluted in 2% HCl with (0.5 ppb Ir), then Pt content was measured in the ICP-MS.

CT-26 cells [2] = assay: Internalization of Paclitaxel (PTX) in CT-26 cells measured by flow cytometry; format: cell-based, mouse
Procedure: There is a remarkable increment in the percentage of cells containing PTX when co-administered with the conjugate, especially after 24 hours incubation. (c) depicts the amount of PTX internalization expressed as mean fluorescence intensity (MFI).

[3] = cited from earlier work
CT26 colon cancer cells = assay: Internalization of INS-FITC in CT26 cells, flow cytometry and fluorescent imaging; format: cell-based, mouse; conditions: INS-FITC alone
Procedure: CT26 colon cancer cells were seeded in 24-well plates at 100.000 cells/well/mL. After 24 hours, cells were treated with INS-FITC at 10 μM or 30 μM concentration either alone or in combination with the conjugate 4-hydroxybutyl L-tryptophanate in three different molar ratios (1:1, 1:3 or 3:1). Treatments were co-incubated with the CT26 cells for 1 h, 4 h or 24 h. Before observation, cells were washed several times with PBS, and with heparin, to ensure removal of compounds that might remain softly bound to cell membrane and not internalized. Then the washed cells were detached from the wells using trypsin, centrifuged and re-suspended in PBS for analysis by flow cytometry. In flow the cells were gated as singlets (single cell events) and then the fluorescence was recorded for each event in the specific FL channel were the compound has its emission max (INS-FITC: FL1 (525+/−40).

Nc1ccc2c(c1)c(-c1ccccc1)[n+](CCCNCCNCCC[n+]1c(-c3ccccc3)c3cc(N)ccc3c3ccc(N)cc31)c1cc(N)ccc21 [EtDi, Ethidium-homodimer, reference compound]
cell penetration of EtDi (CT-26 cells [1]): cannot penetrate into the cell

O=C1[O][Pt]2([NH][C@@H]3CCCC[C@H]3[NH]2)[O]C1=O [OxPt, Oxaliplatin, reference compound]
OxPt uptake over time (CT26 cells): no apparent increase

CC(=O)O[C@H]1C(=O)[C@@]2(C)[C@H]([C@H](OC(=O)c3ccccc3)[C@]3(O)C[C@H](OC(=O)[C@H](O)[C@@H](NC(=O)c4ccccc4)c4ccccc4)C(C)=C1C3(C)C)[C@]1(OC(C)=O)CO[C@@H]1C[C@@H]2O [PTX, Paclitaxel, reference compound]
% cells uptake (1 h), CT-26 cells with PTX internalized (CT-26 cells [2]; PTX 10 μM alone): 2.3% | % cells uptake (4 h), CT-26 cells with PTX internalized (CT-26 cells [2]; PTX 10 μM alone): 2.4% | % cells with uptake (24 h), CT-26 cells with PTX internalized (CT-26 cells [2]; PTX 10 μM alone): 7.7% | % cells uptake (1 h), CT-26 cells with PTX internalized (CT-26 cells [2]; PTX 30 μM alone): 2.2% | % cells uptake (4 h), CT-26 cells with PTX internalized (CT-26 cells [2]; PTX 30 μM alone): 3.0% | % cells with uptake (24 h), CT-26 cells with PTX internalized (CT-26 cells [2]; PTX 30 μM alone): 7.6%

N[C@@H](Cc1c[nH]c2ccccc12)C(=O)O [tryptophan]
pKa of deprotonated carboxylic acid (—COO−) [3]: 2.38 | pKa of protonated amino group (—NH3+) [3]: 9.39

INS-FITC: fluorescently labelled insulin, insulin conjugated with FITC [reference compound]
internalization in cells (share of cells) (CT26 colon cancer cells): 100%
